The results in this text go back to US20010051654A1, “Treatment of inflammatory and autoimmune diseases” (priority 1997, published 2001).

For series [1], the system named is 20 S proteasome. Description: Ex vivo 20 S proteasome activity in peripheral white blood cells of mice. The procedure: This preparation procedure applies to blood samples collected from mammals, particularly rats, mice, dogs, pigs, rabbits, non-human primates, or human subjects. Peripheral white blood cells are separated from blood samples upon collection for storage at about −70° C. until tested. To avoid interference with the assay due to the presence of endogenous proteasome inhibitors, it is important that red blood cells be rigorously excluded.
The blood sample is diluted 1:1 (v/v) with sterile saline, and the blood-saline mixture is layered over NYCOPREP™ separation medium (GIBCO BRL Products) in a 14×75 mm polystyrene test tube at a ratio of approximately 2:1 blood:NYCOPREP™. The sample is centrifuged at 500 x g for approximately 30 minutes at room temperature. The top layer is removed, leaving ˜2-3 mm of the cell band between the top and bottom layers. The remaining cell band is transferred by pipette to a clean centrifuge tube. The cell band is washed with 3 mL of cold phosphate-buffered saline and centrifuged at 400 x g for 5 minutes at 4° C. The supernatant is poured off and the pellet is resuspended in ˜1 mL of cold phosphate-buffered saline. The suspension is transferred to a 1.5 mL Eppendorf microfuge tube and microfuged at 6600 x g for approximately 10 minutes at 4° C. […]
The amount of 20 S proteasome activity in the test sample is calculated according to the following formula: [formula] […]

In series [2] the target is T1, 20 S proteasome (Rattus norvegicus, UniProt P28075).
T1 sequence (P28075 60-263): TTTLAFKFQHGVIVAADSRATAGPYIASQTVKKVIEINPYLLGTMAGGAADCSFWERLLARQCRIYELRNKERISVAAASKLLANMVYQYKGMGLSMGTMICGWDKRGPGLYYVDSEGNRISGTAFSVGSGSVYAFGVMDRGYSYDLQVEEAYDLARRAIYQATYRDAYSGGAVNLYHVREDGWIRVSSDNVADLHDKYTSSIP
The procedure: In two studies, female Wistar rats (150 to 200 g) were administered a single intravenous dose of 1 (0.03, 0.1 and 0.3 mg/kg in a dose volume of 1.0 mL/kg). […] Tissue samples were collected from liver and brain at 1.0, 24 and 48 h following administration for evaluation of 20 S proteasome activity.
In a third study, male Sprague-Dawley rats (250 to 450 g) were administered a single intravenous dose of 1 (0.1 and 0.3 mg/kg in a dose volume of 1.0 mL/kg). […] Blood and tissue samples were collected 1.0 h following administration for evaluation of 20 S proteasome activity. The tissues collected were brain, colon, liver, muscle (gastrocnemius), prostate and testes.

In series [3] the test system is 20 S proteasome. The series can be described thus: Ex vivo 20 S proteasome activity in primate white blood cells. The arrangement: species or system Cynomolgus monkeys. The procedure:
(§1) Male and female Cynomolgus monkeys (2.2 to 3.5 kg) were assigned to four groups (5/sex/group). Each group received 0 (vehicle control), 0.045, 0.067 or 0.100 mg/kg/dose of 1 as a single intravenous injection in a dose volume of 0.3 mL/kg twice weekly for 4 weeks (days 1, 5, 8, 12, 15, 19, 22 and 26). […] Three males from the control, low- and mid-dose groups, two high-dose males, and three females/group were sacrificed at the end of treatment on Day 27. Two animals/sex/group were designated as recovery animals and received treatment for 4 weeks followed by 2 weeks of recovery; they were sacrificed on Day 41.
(§2) Blood was collected for 20 S proteasome activity determination prior to treatment, at 1.0 h after dosing on Days 1, 8, 15 and 22, and at 1.0 h prior to dosing on Days 5, 12, 19 and 26; and on Days 31, 34, 38, and 41 (recovery sacrifice animals).

Series [4] has as its system 20 S proteasome. The series can be described thus: Chymotryptic and tryptic assays in rat white blood cell lysates. In kind it is biochemical. Particulars: fit, FIG. 19. From the text: Data was fitted as in Example 10, to give kc/kt=17.6±and βt=1.1±0.2 (FIG. 19).
Series [5] deals with 20 S proteasome. Description: Chymotryptic to tryptic activity ratio assay, human samples. The format is biochemical. From the text:
βt=activation factor determined upon titration of the proteasome inhibitor. For the proteasome inhibitor 1, βt=1.28 in human samples.

Series [6] in a line: Twice weekly intravenous dosing for 4 weeks in Cynomolgus monkeys, clinical condition. The format is in vivo. The conditions noted are these: one high-dose male (0.100 mg/kg/dose), Day 26 after receiving 8 doses. The procedure:
as §1, §2

The subject of series [7] is 20 S proteasome from rabbit reticulocytes. The series can be described thus: Chymotryptic and tryptic activities of purified 20 S proteasome from rabbit reticulocytes.
Description: Chymotryptic and tryptic assays were performed as described in Examples 3 and 5 at increasing concentrations of the proteasome inhibitor 1.
[8] abbreviates: 1.0 h after single IV 0.1 and 0.3 mg/kg, male Sprague-Dawley rats.

Like-named read-outs stand apart in the source and are kept apart here.

For the molecule `CC(C)C[C@H](NC(=O)[C@H](Cc1ccccc1)NC(=O)c1cnccn1)B(O)O` [Compound 1, N-(pyrazine)carbonyl-L-phenylalanine-L-leucine boronic acid], the “20 S proteasome activity in white blood cells” value was “significant (p<0.05) dose-related decrease” in series [1] (1.0 h after single IV 0.1 to 3.0 mg/kg, all dose groups) and “starts to recover” in series [1] (24 h after single IV 0.1 to 3.0 mg/kg). Also, the “20 S proteasome activity in rat liver” value in series [2] (1.0 h after single IV 0.03, 0.1, 0.3 mg/kg, female Wistar rats) is given as “significant (p<0.05) dose-related decrease”; in series [2] (24 h after single IV, high dose group 0.3 mg/kg, female Wistar rats), “smaller, but remained significant (p<0.05) in the high dose group”; in series [2] (48 h after single IV, female Wistar rats), “returned to baseline”. The “20 S proteasome activity in peripheral white blood cells, colon, liver, muscle (gastrocnemius), and prostate” value in series [2] (setting [8]) is given as “Significant (p<0.05) dose-related decreases”. For the same molecule, the “20 S proteasome inhibition in brain and testes” value in series [2] (setting [8]) was “No 20 S proteasome inhibition”. For the same molecule, the “penetration into brain tissue” value in series [2] (inferred from absent 20 S proteasome inhibition, female Wistar rats) is recorded as “lack of penetration”. In addition, the “penetration into brain and testes” value in series [2] (inferred from absent 20 S proteasome inhibition, male Sprague-Dawley rats) is “lack of 1 penetration”. In addition, in series [2] (single IV 0.03, 0.1, 0.3 mg/kg, female Wistar rats), the “20 S proteasome inhibition in brain tissue” value was “No 20 S proteasome inhibition”. The “white blood cell 20 S proteasome activity” value is “significant and dose-related decrease” in series [3] (1.0 h after dosing, 0.045, 0.067 or 0.100 mg/kg/dose IV twice weekly for 4 weeks); “recovered” in series [3] (72 hours after dosing, prior to the subsequent dose). Further, the “white blood cell 20 S proteasome activity of the moribund animal” value in series [3] (high-dose male at sacrifice on Day 26 after 8 doses) is “low residual 20 S proteasome activity”. Besides, the “βt (activation factor of tryptic activity)” value in series [4] was determined as 1.1±0.2; in series [7] (purified 20 S proteasome from rabbit reticulocytes, fit, FIG. 18) it was 1.38±0.05. In series [5], the “βt (activation factor determined upon titration of the proteasome inhibitor)” value amounted to 1.28. In addition, the clinical condition result in series [6] is given as “sacrificed in moribund condition”. Moreover, the “βc (factor for chymotryptic activity of the E•I complex; 0 = total inhibition)” value in series [7] worked out at 0. In series [7] (increasing concentrations of 1), the “chymotryptic activity (FIG. 17)” value is listed as “fully inhibits”. For the same molecule, the “tryptic activity (FIG. 17)” value in series [7] (increasing concentrations of 1) is on record as “activation”.
